Experimental data taken from paper PMC6151961 (Journal of Enzyme Inhibition and Medicinal Chemistry, 2018).

molecular target: CA IX (Homo sapiens, UniProt Q16790); test: biochemical; conditions: not given

| Compound | log10 of Ki in nM |
| --- | --- |
| NOC(=O)c1cc(Cl)c(Cl)c(C(=O)ON)c1 [B0452] | 1.699 |
| NS(=O)(=O)c1ccc(NC(=O)Cn2ccc(=O)c(S(N)(=O)=O)c2)cc1 [B0371] | 1.491 |
| CCCCCOS(N)(=O)=O [A1675] | 2.100 |
| Nc1c(C(=O)N/N=C2\C(=O)N(Cc3ccccc3)c3ccccc32)cnn1-c1ccc(S(N)(=O)=O)cc1 [A0861] | 1.301 |
| NS(=O)(=O)c1ccc(OCc2ccc(F)cc2)cc1 [A0463] | 0.869 |
| NS(=O)(=O)c1ccc(C(=O)NCc2cn([C@@H]3O[C@H](CO)[C@H](O)[C@H](O)[C@H]3O)nn2)cc1 [A1960] | 2.556 |
| CC(=O)OC[C@H]1O[C@@H]([S+]([O-])Cc2cn(-c3ccc(S(N)(=O)=O)cc3)nn2)[C@H](OC(C)=O)[C@@H](OC(C)=O)[C@@H]1OC(C)=O (stereo partly shown) [B0212] | 0.996 |
| CC(=O)OC[C@H]1O[C@@H](n2cc(-c3ccc(S(N)(=O)=O)cc3)nn2)[C@H](OC(C)=O)[C@@H](OC(C)=O)[C@@H]1OC(C)=O [A1660] | 2.079 |

same assay, conditions: experimental value from the library Ki (IDs A…, B…); values equal log10 of Ki in nM

| Compound | log10 of Ki in nM |
| --- | --- |
| NS(=O)(=O)c1ccc(CNS(=O)(=O)c2ccc(NC(=O)c3c(F)c(F)cc(F)c3F)cc2)cc1 [A0340] | 0.740 |
| COc1ccc(-c2cn(-c3ccc(S(N)(=O)=O)cc3)c(=S)[nH]2)cc1 [A1063] | 1.477 |
| NS(=O)(=O)c1ccc(CNC(=O)Cc2ccc(F)cc2)cc1 [A0160] | 0.491 |
| COc1ccc(-c2cc(CO)nn2-c2ccc(S(N)(=O)=O)cc2)cc1 [A0859] | 1.301 |
| COc1ccc(C2=Nn3c(nnc3-c3ccc(S(N)(=O)=O)cc3)SC2)cc1 [A0402] | 0.813 |
| N#C/C(=C\c1ccc2c(c1)OCO2)C(=O)Nc1ccc(S(N)(=O)=O)cc1 [A0636] | 0.978 |
| CCCCC(=O)OC[C@H]1O[C@@H](n2cc(-c3ccc(S(N)(=O)=O)cc3)nn2)[C@H](OC(=O)CCCC)[C@@H](OC(=O)CCCC)[C@H]1OC(=O)CCCC [A1944] | 2.525 |
| O=S1(=O)C=Cc2cc(-c3nnnn3-c3cccc4ccccc34)ccc2O1 [A0400] | 0.813 |
| NS(=O)(=O)Nc1ccc(S(=O)(=O)Nc2nnc(S(N)(=O)=O)s2)cc1 [A1288] | 1.716 |
| NS(=O)(=O)c1ccc(CNC(=O)CCCNC(=O)NCc2ccccc2)cc1 [A2003] | 2.660 |
| NS(=O)(=O)c1ccc(NC(=O)N2CCN(CCO)CC2)cc1 [A1995] | 2.639 |
| NS(=O)(=O)c1ccc(NC(=O)c2ccc(/N=C3\C(=O)Nc4ccc([N+](=O)[O-])cc43)cc2)cc1 [A1847] | 2.375 |
| Cc1ccc2c(n1)SCc1cnc(Nc3ccc(S(N)(=O)=O)cc3)nc1-2 [A0518] | 0.908 |
| NS(=O)(=O)c1ccc(-c2cnc(C3CCC3)o2)s1 [B0649] | 2.193 |
| NS(=O)(=O)c1ccc(NCc2cc(Br)ccc2O)cc1 [A0114] | 0.415 |
| CCCN(CCC)S(=O)(=O)c1ccc(C(=O)Nc2ccccc2[N+](=O)[O-])cc1 [A1771] | 2.283 |

same assay, conditions: experimental value from the library Ki (IDs A…, B…); values equal log10 of Ki in nM; read-out: pKi (exp.) (converted)

| Compound | Ki [nM] |
| --- | --- |
| Nc1nc(N)c2nc(CNCCc3ccc(S(=O)(=O)O)cc3)cnc2n1 [A2175] | 1000 |

same assay, conditions: experimental value used for the QSPR model, library compounds (IDs A…, B…); equals log10 of Ki in nM

| Compound | log10 of Ki in nM |
| --- | --- |
| CC(C)(C)OC(=O)NCCCCOc1ccc(S(N)(=O)=O)cc1 [A0486] | 0.886 |
| NS(=O)(=O)c1ccc2nc(-n3cc(C=O)c(-c4ccc(F)cc4)n3)sc2c1 [A2181] | 3.009 |
| N#Cc1c(-c2ccc(Br)cc2)cn(-c2ccc(S(N)(=O)=O)cc2)c1NC(=S)Nc1ccc(Br)cc1 [A1551] | 1.960 |
| NS(=O)(=O)c1ccc(Nc2nc(Nc3ccccc3)nc(N3CCOCC3)n2)cc1 [A0867] | 1.303 |
| O=NCc1c(O)ccc(-c2ccc(O)cc2)c1Cl [B0828] | 3.780 |
| NS(=O)(=O)c1ccc(OCCN2CCOCC2)cc1 [A0728] | 1.100 |
| NS(=O)(=O)c1ccc(/N=C/c2ccccc2)c(F)c1 [A1026] | 1.447 |
| NS(=O)(=O)c1ccc(CCNCc2cc(Cl)cc(Cl)c2O)cc1 [A0260] | 0.613 |
| CC(C)(F)CNS(=O)(=O)c1ccc(N)cc1 [A1490] | 1.919 |
| Cc1cccc(Nc2nc(Cl)nc(Nc3ccc(S(N)(=O)=O)cc3)n2)c1 [A0317] | 0.708 |
| CCCC(=O)OC[C@H]1O[C@@H](n2cc(-c3ccc(S(N)(=O)=O)cc3)nn2)[C@H](OC(=O)CCC)[C@@H](OC(=O)CCC)[C@H]1OC(=O)CCC [A1285] | 1.714 |

same assay, conditions: library compounds with IDs A… and B…; from observed Ki (nM)

| Compound | log10 of Ki in nM |
| --- | --- |
| N#Cc1c(-c2ccc(Br)cc2)cn(-c2ccc(S(N)(=O)=O)cc2)c1NC(=O)c1ccc(Br)cc1 [B0101] | 0.724 |
| NS(=O)(=O)c1ccc(NC(=O)c2ccc(/N=C3\C(=O)Nc4ccc(F)cc43)cc2)cc1 [A0310] | 0.699 |
| Cc1c(C(=O)N2CCN(C)CC2)cc(-c2ccc3ccccc3c2)n1-c1ccc(S(N)(=O)=O)cc1 [A1687] | 2.124 |
| NS(=O)(=O)OC1CCN(S(=O)(=O)[C@@H]2O[C@H](CO)[C@@H](O)[C@H](O)[C@H]2O)CC1 [A0701] | 1.041 |
| CC(C)(C)OC(=O)N(CCCCN(CCCNC(=O)C(F)(F)F)C(=O)OC(C)(C)C)CCCNC(=O)C(F)(F)F [A2554] | 5.093 |
| CCCN(CCC)S(=O)(=O)c1ccc(C(=O)N[C@@H](CCSC)C(N)=O)cc1 [A0860] | 1.301 |
| O=C1NS(=O)(=O)c2cc([N+](=O)[O-])ccc21 [A1570] | 1.981 |
| Fc1ccc(-c2nn(-c3ccccc3)cc2-c2nc3ccccc3[nH]2)cc1 [A1367] | 1.813 |
| Cc1nnnn1-c1ccc2c(c1)C=CS(=O)(=O)O2 [A1375] | 1.819 |
| COc1ccc(NC(=S)Nc2c(C#N)c(-c3ccc(Br)cc3)cn2-c2ccc(S(N)(=O)=O)cc2)cc1 [A1714] | 2.149 |
| Cc1cc(C)cc(NC(=O)Nc2ccc3c(C)cc(=O)oc3c2)c1 [A2046] | 2.785 |
| NS(=O)(=O)c1ccc(CNC(=O)Cc2ccccc2)cc1 [A1701] | 2.134 |
| NS(=O)(=O)c1ccc(-n2cc(CO[C@@H]3O[C@H](COCc4ccccc4)[C@@H](OCc4ccccc4)[C@H]3OCc3ccccc3)nn2)cc1 [A1497] | 1.924 |
| CCCN(CCC)S(=O)(=O)c1ccc(C(=O)NCC)cc1 [A1724] | 2.179 |

same assay, conditions: library compounds with IDs A… and B…; from observed Ki (nM); read-out: pKi (exp.) (converted)

| Compound | Ki [nM] |
| --- | --- |
| CC(C)CCC[C@@H](C)[C@H]1CC[C@@H]2[C@@H]1CC[C@H]1[C@H]2CC=C2C[C@@H](OS(N)(=O)=O)CC[C@@]21C [A2177] | 1000 |

same assay, conditions: read-out: pKi (exp.) (converted)

| Compound | Ki [nM] |
| --- | --- |
| CCOC(=O)c1cc(S(N)(=O)=O)c(SSc2cc(Cl)c(C(=O)OCC)cc2S(N)(=O)=O)cc1Cl [A2456] | 10000 |
